For the assay, the target named is T1, caspase-3(D9A,D28A) (Homo sapiens, UniProt P42574, D28A/D9A).
T1 sequence (P42574 1-175 D9A/D28A limits assumed): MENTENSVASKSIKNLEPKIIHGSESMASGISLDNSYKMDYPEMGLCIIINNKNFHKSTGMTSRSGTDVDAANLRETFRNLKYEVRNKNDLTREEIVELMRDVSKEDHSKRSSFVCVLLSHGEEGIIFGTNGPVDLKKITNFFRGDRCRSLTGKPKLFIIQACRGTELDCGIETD
T1 sequence (P42574 176-277 limits assumed): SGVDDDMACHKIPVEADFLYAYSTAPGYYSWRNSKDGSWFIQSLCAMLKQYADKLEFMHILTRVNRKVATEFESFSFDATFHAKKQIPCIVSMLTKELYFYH
Kind of assay: isothermal titration calorimetry. It is filed as binding. (ITC needs no label: the signal is the heat of the interaction.)

Results on one compound are retold here after article PMC3166964 (Biophysical chemistry, 2011).

`CCN(CC)S(=O)(=O)c1ccc(-c2ccc(S(=O)(=O)N(CC)CC)s2)s1` [compound 42, N2,N2-diethyl-5-{5-[(diethylamino)sulfonyl]-2-thienyl}thiophene-2-sulfonamide] yielded a Kd of approximately 4 µM.

The Kd is a measure of binding affinity in units of concentration. A low value points to higher affinity.
